Assay results from US4271163A, “Novel 3,4-diaza-bicyclo[4.1.0]hept-2-en-5-ones, their preparation, and therapeutic agents containing these compounds” (BASF Aktiengesellschaft, priority 1978, dated 1981).
Converted amounts (≈) assume the structure as drawn. Read-outs that look alike come from different tables or passages of the source.

Experiments:
[1] = tested on: human thrombocytes; experiment: Inhibition of the collagen-induced aggregation of human thrombocytes in vitro; assay type: cell-based; settings: for EC50: 10 min, read-out: Inhibition of collagen-induced thrombocyte aggregation in vitro, EC 50%; for Inhibition of aggregation, R.A. (relative activity): acetylsalicylic acid = 1.00
Method: 1. Inhibition of the collagen-induced aggregation of human thrombocytes in vitro.
(§1) Thrombocyte-rich plasma is obtained by centrifuging venous citrate blood (300 g, 10 minutes duration at 4° C.). The photometric measurement of the thrombocyte aggregation is carried out with addition of MgCl2 (final concentration 10 millimoles/l) and of collagen Stago (final concentration 0.02 mg/ml) in a Born Mk 3 aggregometer. The maximum extinction change/sec is used as a measure of the aggregation.
The aggregation-inhibiting activity of the substances is tested after an incubation time of 10 minutes.
The EC 50% is taken to be the concentration causing 50% inhibition of aggregation.
(§2) The effective doses or effective concentrations were calculated from the linear relationships between the logarithm of the dose or concentration and the logarithm of the effect, by means of regression analysis.
(§3) Acetylsalicylic acid was used as the reference substance for the inhibition of thrombocyte aggregation and dihydralazine for the anti-hypertensive effect.

[2] = tested on: rat thrombocytes; experiment: Inhibition of the collagen-induced aggregation of rat thrombocytes ex vivo; assay type: in vivo, rat (male Sprague-Dawley); settings: for ED (33%): Rattus norvegicus, read-out: Inhibition of thrombocyte aggregation, ED 33%; for Inhibition of thrombocyte aggregation, R.A. (relative activity): acetylsalicylic acid = 1.00
Method: as §1
2. Inhibition of the collagen-induced aggregation of rat thrombocytes ex vivo.
The substances are administered orally to groups of 10-15 male Sprague-Dawley rat weighing 200-250 g. 1-4 hours after administration, blood is taken under ether narcosis and thrombocyte-rich plasma is obtained by centrifuging. The aggregation after addition of collagen is measured as indicated above. The ED 33% is determined as the dose which inhibits the collagen-induced thrombocyte aggregation by 33%.
as §2, §3

[3] = tested on: spontaneously hypertonic rats; experiment: Anti-hypertensive effect on spontaneously hypertonic rats; assay type: in vivo, rat (male spontaneously hypertonic Okamoto); settings: for ED (20%): Rattus norvegicus, 2 h, dose which lowers the blood pressure by 20% compared to the control group; for ED (20%) / Anti-hypertensive effect, R.A.: oral administration; for Anti-hypertensive effect, R.A.: dihydralazine = 1.00
Method: 4. Anti-hypertensive effect on spontaneously hypertonic rats.
The substances are administered orally to groups of 4-8 male spontaneously hypertonic Okamoto rats weighing 270-340 g. Before, and 2 hours after, the administration, the systolic blood pressure is measured non-surgically by means of piezo-electric crystal sensors.
The ED 20% is determined as the dose which lowers the systolic pressure by 20%, taking into account the values found with untreated control animals.
as §2, §3

[4] = tested on: narcotized rats; experiment: Anti-hypertensive effect on narcotized rats; assay type: in vivo, rat (male Sprague-Dawley); settings: rats under urethane narcosis, intraperitoneal; for ED (20%): Rattus norvegicus, ip, dose which lowers the blood pressure by 20%, read-out: Reduction in blood pressure, ED 20%; for Reduction in blood pressure, R.A. (relative activity): dihydralazine = 1.00
Method: 3. Anti-hypertensive effect on narcotized rats.
To test the anti-hypertensive effect, the substances are administered intraperitoneally to groups of 3-5 male Sprague-Dawley rats weighing 240-280 g, under urethane narcosis ([…] given intraperitoneally).
The measurement of the blood pressure in the carotid artery is carried out by means of Statham transducers. The ED 20% is determined as the dose which lowers the mean carotid blood pressure by 20%.
as §2, §3

[5] = human thrombocytes in vitro, concentration which inhibits the collagen-induced aggregation by 50%, 10 minutes incubation

Structure (SMILES) | EC50 ([1]; Homo sapiens) [µg/mL] | ED (33%) ([2]; po) [mg/kg] | Inhibition of thrombocyte aggregation, R.A. (relative activity) ([2]; rats, oral administration) | ED (20%) [3] [mg/kg] | Anti-hypertensive effect, R.A. [3] | ED (20%) [4] [mg/kg] | Reduction in blood pressure, R.A. (relative activity) [4] | Anti-hypertensive effect in spontaneously hypertonic rats after oral administration (in words) ([3]; oral) | EC50 [1, 5] [µg/mL] | Inhibition of aggregation, R.A. (relative activity) ([1]; human thrombocytes in vitro) | ED (33%) ([2]; rats, oral administration, dose which inhibits the collagen-induced aggregation by 33%) [mg/kg] | Inhibition of thrombocyte aggregation after oral administration in vivo (in words) ([2]; rats, oral, versus acetylsalicylic acid)
CC(=O)Oc1ccccc1C(=O)O [Acetylsalicylic acid, reference compound] | 494 (≈ 2740 µM) | 134 | 1.00 | – | – | – | – | – | – | – | – | –
NNc1nnc(NN)c2ccccc12 [Dihydralazine, reference compound] | – | – | – | 6.85 | 1.00 | 0.337 | 1.0 | – | – | – | – | –
CC(=O)Nc1ccc(C2=NNC(=O)C3CC23)cc1 (stereo not shown) [Example 7, 2-(p-acetylaminophenyl)-3,4-diaza-bicyclo[4.1.0]hept-2-en-5-one] | – | – | 4.36 | 8.65 | 0.79 | 0.193 | 1.75 | demonstrable | 0.14 (≈ 0.576 µM) | 3530 | 30.7 | far surpasses the effect of acetylsalicylic acid
O=CNc1ccc(C2=NNC(=O)C3CC23)cc1 (stereo not shown) [Example 10, 2-(p-formylaminophenyl)-3,4-diaza-bicyclo[4.1.0]hept-2-en-5-one] | – | – | – | – | – | 0.253 | 1.33 | – | 6.81 (≈ 29.7 µM) | 73 | – | –
O=C(CCl)Nc1ccc(C2=NNC(=O)C3CC23)cc1 (stereo not shown) [Example 12, 2-(p-chloroacetylaminophenyl)-3,4-diaza-bicyclo[4.1.0]hept-2-en-5-one] | – | – | – | – | – | 0.299 | 1.13 | – | 0.95 (≈ 3.42 µM) | 518 | – | –
C=CC(=O)Nc1ccc(C2=NNC(=O)C3CC23)cc1 (stereo not shown) [Example 14, 2-(p-acryloylaminophenyl)-3,4-diaza-bicyclo[4.1.0]hept-2-en-5-one] | – | – | – | – | – | 0.298 | 1.13 | – | 0.38 (≈ 1.49 µM) | 1310 | – | –
CCCC(=O)Nc1ccc(C2=NNC(=O)C3CC23)cc1 (stereo not shown) [Example 15, 2-(p-butyrylaminophenyl)-3,4-diaza-bicyclo[4.1.0]hept-2-en-5-one] | – | – | – | – | – | 1.88 | 0.18 | – | 1.87 (≈ 6.89 µM) | 264 | – | –
CC(C)C(=O)Nc1ccc(C2=NNC(=O)C3CC23)cc1 (stereo not shown) [Example 16, 2-(p-isobutyrylaminophenyl)-3,4-diaza-bicyclo[4.1.0]hept-2-en-5-one] | – | – | – | – | – | 0.402 | 0.84 | – | 4.88 (≈ 18 µM) | 101 | – | –
CCC(C)C(=O)Nc1ccc(C2=NNC(=O)C3CC23)cc1 (stereo not shown) [Example 18, 2-[p-(2-methylbutyrylamino)-phenyl]-3,4-diaza-bicyclo[4.1.0]hept-2-en-5-one] | – | – | – | – | – | 0.9 | 0.37 | – | 3.99 (≈ 14 µM) | 124 | – | –
O=C(CCCl)Nc1ccc(C2=NNC(=O)C3CC23)cc1 (stereo not shown) [Example 19, 2-[p-(3-chloropropionylamino)-phenyl]-3,4-diaza-bicyclo[4.1.0]hept-2-en-5-one] | – | – | – | – | – | 0.688 | 0.49 | – | 3.52 (≈ 12.1 µM) | 140 | – | –
O=C(CCCCl)Nc1ccc(C2=NNC(=O)C3CC23)cc1 (stereo not shown) [Example 21, 2-[p-(4-chlorobutyrylamino)-phenyl]-3,4-diaza-bicyclo[4.1.0]hept-2-en-5-one] | – | – | – | – | – | 6.81 | 0.05 | – | 2.27 (≈ 7.42 µM) | 218 | – | –
CC(C)(CBr)C(=O)Nc1ccc(C2=NNC(=O)C3CC23)cc1 (stereo not shown) [Example 22, 2-(p-bromopivaloylaminophenyl)-3,4-diaza-bicyclo[4.1.0]hept-2-en-5-one] | – | – | – | – | – | 2.96 | 0.11 | – | 3.47 (≈ 9.53 µM) | 142 | – | –
O=C(Nc1ccc(C2=NNC(=O)C3CC23)cc1)C(Cl)Cl (stereo not shown) [Example 23, 2-(p-dichloroacetylaminophenyl)-3,4-diaza-bicyclo[4.1.0]hept-2-en-5-one] | – | – | – | – | – | 1.5 | 0.23 | – | 2.99 (≈ 9.58 µM) | 165 | – | –
CC(Cl)(Cl)C(=O)Nc1ccc(C2=NNC(=O)C3CC23)cc1 (stereo not shown) [Example 24, 2-[p-(2,2-dichloropropionylamino)-phenyl]-3,4-diaza-bicyclo[4.1.0]hept-2-en-5-one] | – | – | – | – | – | 10 | 0.03 | – | 3.2 (≈ 9.81 µM) | 154 | – | –
CC1CC1C(=O)Nc1ccc(C2=NNC(=O)C3CC23)cc1 (stereo not shown) [Example 25, 2-[p-(2-methylcyclopropylcarbonylamino)-phenyl]-3,4-diaza-bicyclo[4.1.0]hept-2-en-5-one] | – | – | – | – | – | 0.649 | 0.52 | – | 1.8 (≈ 6.35 µM) | 274 | – | –
CC1(C(=O)Nc2ccc(C3=NNC(=O)C4CC34)cc2)CC1(Cl)Cl (stereo not shown) [Example 26, 2-[p-(2,2-dichloro-1-methylcyclopropylcarbonylamino)-phenyl]-3,4-diaza-bicyclo[4.1.0]hept-2-en-5-one] | – | – | – | – | – | 0.786 | 0.43 | – | 1.91 (≈ 5.42 µM) | 259 | – | –
O=C(Nc1ccc(C2=NNC(=O)C3CC23)cc1)C1CCC1 (stereo not shown) [Example 27, 2-(p-cyclobutylcarbonylaminophenyl)-3,4-diaza-bicyclo[4.1.0]hept-2-en-5-one] | – | – | – | – | – | 0.398 | 0.85 | – | 1.42 (≈ 5.01 µM) | 348 | – | –
O=C(Nc1ccc(C2=NNC(=O)C3CC23)cc1)C1CCCCC1 (stereo not shown) [Example 28, 2-(p-cyclohexylcarbonylaminophenyl)-3,4-diaza-bicyclo[4.1.0]-hept-2-en-5-one] | – | – | – | – | – | 0.415 | 0.81 | – | 5.09 (≈ 16.3 µM) | 97 | – | –
C/C=C/C(=O)Nc1ccc(C2=NNC(=O)C3CC23)cc1 (stereo not shown) [Example 29, 2-(p-crotonoylaminophenyl)-3,4-diaza-bicyclo[4.1.0]-hept-2-en-5-one] | – | – | – | – | – | 1.71 | 0.20 | – | 2.12 (≈ 7.87 µM) | 233 | – | –
O=C(Nc1ccc(C2=NNC(=O)C3CC23)cc1)c1ccccc1 (stereo not shown) [Example 30, 2-(p-benzoylaminophenyl)-3,4-diaza-bicyclo[4.1.0]hept-2-en-5-one] | – | – | – | – | – | > 10 | < 0.03 | – | 6.01 (≈ 19.7 µM) | 82 | – | –
